# Results from patent US8987324B2, “Use of simalikalactone E as an anticancer agent” (Institut de Recherche pour le Developpement, priority 2011, dated 2015).
# Where two headings read alike, the source gives them in different places.
# Tests used:
# [1] = test system: K562-Ima-S leukemia cell line; test: XTT cell viability, K562-Ima-S; type: cell-based; settings: 48 hours
# Method: (§1) B1-1. XTT Cell Viability Measurement
# (§2) This test measures the activity of mitochondrial succinate dehydrogenase, which represents an index of cell viability. This enzyme converts XTT into orange formazan. On day 0, the K562-Ima-S (sensitive to Ima), K562-Ima-R (resistant to Ima), A375 or MeWo cells are seeded at 15 000 cells/well (100 μl) in 96-well microplates and stimulated with increasing concentrations of Simalikalactone E [50-500 nM]. After 24 or 48 hours, 50 μl of tetrazolium (XTT reagent) are added to each well and the optical density at 490 nm is read every 30 minutes for 2 to 4 hours. The values obtained, which are an index of mitochondrial metabolism, make it possible to evaluate the percentage of live cells. Each condition is systematically carried out in triplicate.
# (§3) The K562-Ima-S and K562-Ima-R tumor lines are incubated for 48 hours with increasing concentrations of Simalikalactone E (0, 100 or 250 nM) in the absence or in the presence of a maximally effective concentration (50 μM) of z-Vad-fmk (Zvad), which is a pan-caspase inhibitor (apoptosis inhibitor).
# [2] = test system: K562-Ima-R leukemia cell line; test: XTT cell viability, K562-Ima-R; type: cell-based; settings: 48 hours
# Method: as §1, §2, §3
# A375 melanoma cells = test: XTT cell viability, A375 melanoma cells; type: cell-based; settings: 48 hours; A375 carry B-raf V600E, MeWo do not
# Method: as §1, §2
# A375 and MeWo melanoma cells are then treated in the presence of increasing doses of Simalikalactone E. 48 hours later, the cells are subjected to an XTT test. The A375 cells carry the V600E mutation on the B-raf oncogene, which is reflected by constitutive activation of the Erk pathway.
# K562 cells = test: Clonogenic capacity of K562 cells; type: cell-based; settings: SkE 100, 250 or 500 nM versus 1 μM imatinib, 7 to 10 days
# Method: B1-2. Evaluation of the Clonogenic Capacity of K562 Cells
# Aliquots of methylcellulose (40% Methocult®, 1% L-glutamine, 5% FCS (fetal calf serum) and 54% IMDM (Iscove's modified Dulbecco's medium)) are heated for 1 h at 37° C. 400 μl of RPMI (Roswell Park Memorial Institute medium), 5% of FCS containing the treatment (1 μM imatinib, 100, 250 or 500 nM SkE), and then 10^3 K562 cells in 200 μl of medium are added to each aliquot. For each condition, 500 μl of the suspension obtained are then deposited in 3 wells of a 24-well plate. A nontreated condition serves as a control. The plates are incubated at 37° C. for 7 to 10 days. 75 μl of MTT tetrazolium salt (Roche) (2.5 mg/ml) are added to each well. The MTT tetrazolium salt is cleaved into purple-colored formazan crystals by the metabolically active cells. After incubation for 4 h at 37° C., the wells are photographed and the clones are quantified using the Image J program.
# [3] = test system: CD34+ Bcr-Abl+ primary cells from patients suffering from CML; test: XTT viability of CD34+ human primary cells from CML patients; type: cell-based; settings: 48 hours
# Method: The primary cells from patients suffering from CML (purified CD34+Bcr-Abl+) are incubated in the presence of variable concentrations of Simalikalactone E for 48 hours, and then the cell viability is quantified using an XTT colorimetric test. Imatinib (Ima) is used as a positive control for the induction of death of the Bcr-Abl+ cells.
# [4] = test system: Erk1/2 kinase (MAP kinase) phosphorylation; test: Western blot of death markers and Erk1/2 phosphorylation, K562-Ima-S; type: cell-based
# Method: (§4) The characterization of the type of cell death involved in the effect of Simalikalactone E is carried out according to the following protocols: • apoptosis (type I cell death) is studied by assaying caspase activity, caspases being cysteine proteases involved in this type of process. The apoptosis is also quantified by annexin V/propidium iodide co-labeling, the cells which externalize the annexin V at the level of their […] being cells undergoing apoptosis, • autophagic death (type II cell death) is analyzed by assaying cathepsin activity, these proteases being, for their part, involved in the degradation of the intracellular material included in vesicles (autophagolysosomes). […] B1-4. Xenografts of K562-Luc Cells on Nude Mice
# (§5) The K562-Ima-S (A) and K562-Ima-R (B) cells are treated for variable periods of time with 250 nM of Simalikalactone E. The cells are then lyzed and protein extracts are prepared for western blot analysis. Finally, the membranes are incubated in the presence of the various anti-PARP, LC3b, p-Erk1/2, Erk1/2 and HSP60 antibodies.
# K562-Ima-S cells are then treated for 1 hour in the presence of 250 nM of Simalikalactone E or 10 μM of U0126 (specific inhibitor of MEK1/2, the kinase responsible for Erk1/2 (MAP kinase) phosphorylation and activation). The cells are then lyzed and protein extracts are prepared for western blot analysis. The membranes are then incubated in the presence of the p-Erk1/2, Erk1/2 and HSP60 antibodies.
# [5] = test system: Erk1/2 kinase (MAP kinase) phosphorylation; test: Western blot of death markers and Erk1/2 phosphorylation, K562-Ima-R; type: cell-based; settings: 250 nM
# Method: as §4, §5
# [6] = test system: Rafl-dependent Erk1/2 (MAP kinase) phosphorylation; test: Rafl-dependent Erk1/2 phosphorylation in inducible HEK-Rafl-ER cells; type: cell-based; settings: 30 minutes preincubation, then 1 μM tamoxifen for 1 hour
# Method: In the experiment presented in FIG. 6B, inducible HEK-Rafl-ER cells were used. These cells express the Raf kinase under the control of the estrogen receptor. The expression of Raf can therefore be induced in the presence of tamoxifen. The cells are preincubated for 30 minutes with increasing doses of Simalikalactone E or U0126, and then treated with 1 μM of tamoxifen for 1 hour. The cells are then lyzed and protein extracts are prepared for western blot analysis. The membranes are finally incubated in the presence of the various antibodies (p-Erk1/2, Erk1/2 and HSP60). Simalikalactone E and U0126 inhibit Rafl-dependent Erk1/2 (MAP kinase) phosphorylation.
# Vero mammalian cells = settings: cited from earlier work
# [7] = test system: gametocyte forms of Plasmodium falciparum; settings: compared with primaquine, reference molecule; cited from earlier work
# [8] = test system: Plasmodium vinckei petteri; settings: murine model of malaria, cited from earlier work
# [9] = mice, orally for 4 days; cited from earlier work
# certain cell lines = settings: cited from earlier work
smiles,measurement,setting,value
CCC(C)C(=O)O[C@@H]1[C@H]2C(C)=CC(=O)[C@@H](O)[C@]2(C)[C@H]2[C@@H](O)[C@H](O)[C@@]3(C)OC[C@@]24[C@@H]1OC(=O)[C@H](OC(=O)C(C)CC)[C@@H]34 (some centres unmarked) [Simalikalactone E],effect on viability in the presence of caspase inhibitor z-Vad-fmk,[1]; 50 μM z-Vad-fmk,not modified
same,sensitivity (growth and viability),[1]; 100 or 250 nM,sensitive
same,effect on viability in the presence of caspase inhibitor z-Vad-fmk,[2]; 50 μM z-Vad-fmk,not modified
same,sensitivity (growth and viability),[2]; 100 or 250 nM,sensitive
same,sensitivity in XTT test compared with MeWo cells,A375 melanoma cells,much more sensitive
same,inhibition of clonogenic capacity,K562 cells,as effectively as imatinib
same,inhibition of cell metabolism compared with imatinib,[3]; 500 nM,as effective as imatinib
same,EC50,"[3]; Homo sapiens, read-out: dose giving the half-maximum effect",100 nM
same,apoptosis marker (PARP cleavage),[4]; 250 nM,no cleavage of PARP
same,autophagy marker (LC3 conversion),[4]; 250 nM,no modification of LC3
same,concentration of U0126 relative to Simalikalactone E for equal effect (times higher),[4]; 250 nM SkE versus 10 μM U0126,40
same,inhibition of Erk1/2 phosphorylation compared with U0126,"[4]; 250 nM SkE versus 10 μM U0126, 1 hour",as effective as U0126
same,Erk1/2 kinase (MAP kinase) phosphorylation,"[4]; 250 nM, variable periods of time, imatinib-sensitive cells",inhibits
same,apoptosis marker (PARP cleavage),[5],no cleavage of PARP
same,autophagy marker (LC3 conversion),[5],no modification of LC3
same,Erk1/2 kinase (MAP kinase) phosphorylation,"[5]; variable periods of time, imatinib-resistant cells",inhibits
same,Rafl-dependent Erk1/2 (MAP kinase) phosphorylation,[6],inhibit
same,selectivity index,Vero mammalian cells; Vero cells versus Plasmodium falciparum,greater than 100
same,IC50,Vero mammalian cells; read-out: dose inhibiting 50% of the growth of Vero mammalian cells,6.57 µM
same,"concentration reducing the gametocyte level by 50%, relative to primaquine",[7],seven times lower
same,dose inhibiting 50% of the growth of Plasmodium vinckei petteri,[8]; intraperitoneally,0.5 mg/kg/day
same,dose inhibiting 50% of the growth of Plasmodium vinckei petteri,[8]; orally,1 mg/kg/day
same,dose tolerated,[9],1 mg/kg/day
same,cytotoxic action,certain cell lines,moderate
"N#CC(=C(/N)Sc1ccccc1N)/C(C#N)=C(\N)Sc1ccccc1N [U0126, reference compound]",Rafl-dependent Erk1/2 (MAP kinase) phosphorylation,[6],inhibit
"CCN(CC)CCCC(C)Nc1ccnc2cc(Cl)ccc12 (centres unmarked) [chloroquine, reference compound]",dose inhibiting 50% of the growth of Plasmodium vinckei petteri,[8]; intraperitoneally,3 mg/kg/day
